Literature values in patent US20070015720A1, “Modulation of endogenous AICAR levels for the treatment of diabetes and obesity” (CytRx Corporation, priority 2005, published 2007).

How the values were obtained:
[1] = system: adipocytes
[2] = system: 3T3L1 adipocytes
[3] = system: obese Zucker (fa/fa) rats; details: long term treatment, high doses
[4] = mice, murine pouch model of inflammation
[5] = low dose, psoriasis patients, day of dosing

| Compound | adipocyte differentiation [1] | non-insulin stimulated glucose uptake [2] | fasting concentrations of glucose and insulin [3] | plasma triglyceride and free fatty acid levels [3] | systolic blood pressure [3] | increase of AICAR-monophosphate in splenocytes [4] | urinary excretion of aminoimidazole carboxamide (AICA) [5] |
| --- | --- | --- | --- | --- | --- | --- | --- |
| NC(=O)c1ncn([C@@H]2O[C@H](CO)[C@@H](O)[C@H]2O)c1N [AICAR, 5-aminoimidazole-4-carboxamide ribonucleoside] | inhibits adipocyte differentiation at an early stage | increase | decrease | reduce | decrease | – | – |
| CN(Cc1cnc2nc(N)nc(N)c2n1)c1ccc(C(=O)N[C@@H](CCC(=O)O)C(=O)O)cc1 [methotrexate] | – | – | – | – | – | three-fold | statistically significant increase |
| O=C(O)c1cc(/N=N/c2ccc(S(=O)(=O)Nc3ccccn3)cc2)ccc1O [sulfasalazine] | – | – | – | – | – | three-fold | – |
